One test has as its target TaCel7A (Thermoascus aurantiacus, UniProt A7WNU2). The test can be described thus: Inhibition of synergistic hydrolysis of 14C-BC by TaCel7A (supplemented with EG TrCel5A). It is filed as biochemical. The following applies: 14C-BC substrate, read-out: IC50 for cellobiose. On the procedure: To study the cellobiose inhibition of GH7 CBHs, the synergistic hydrolysis of ^14C-BC in the presence of added cellobiose was followed (Figure 3, Additional file 1: Figures S1 and S2). Because the cellobiose inhibition of the EG TrCel5A is much weaker than that of GH7 CBHs, the inhibition of synergistic hydrolysis apparently reflects the inhibition of CBH. The strength of cellobiose inhibition was analyzed using plots of (DCB/DCB=0) versus [cellobiose], where DCB and DCB=0 represent the degree of conversion of ^14C-BC in the presence and absence of cellobiose, respectively (Figure 4, Additional file 1: Figure S3). […]
where [CB] is the concentration of cellobiose; [^14CBC] is the concentration of ^14C-BC used in the experiment; and C1, C2 and H are empirical constants. Equation 5 differs from Equation 1 by the presence of constant H. H was included to improve the fit and is a constant that accounts for the background radioactivity (the degree of conversion that is independent of CBH). The degree of conversion resulting from the activity of the EG was measured in a separate experiment (Additional file 1: Figure S4) and was subtracted from the degree of conversion resulting from the synergistic hydrolysis. […] Provided with the values of C1, C2 and H, the value of IC50 was calculated as follows: […]

A further test addresses T1, TrCel5A (Trichoderma reesei, UniProt P07982).
T1 construct: TrCel7B, TrCel5A, and TrCel12A were purified from the culture filtrate of Tr QM 9414; made in house; host or cells: Trichoderma reesei QM 9414 culture filtrate (native producer)
The test can be described thus: Cellobiose inhibition of hydrolysis of 14C-amorphous cellulose by TrCel5A. It counts as biochemical. The following applies: TrCel5A (5.0 nM), 35°C, not accountable by Equation 5. An excerpt: (§1) EGs are a diverse group of enzymes present in all efficient cellulase systems. Their best recognized function is their synergism with CBHs. Depending on the conditions, the degree of synergistic effect may be more than 10-fold. Therefore, the inhibition of the EG component may result in a drastic decrease in the rate of the synergistic hydrolysis of cellulose. The main soluble product of the EG-catalyzed cellulose hydrolysis is cellobiose, but some glucose and higher-order oligosaccharides are also produced. Here, we studied the cellobiose inhibition of the EGs TrCel7B, TrCel5A and TrCel12A with ^14C-amorphous cellulose substrate. The enzyme concentrations and hydrolysis times were adjusted so that the linear region of the time course was studied. The time courses for the hydrolysis of ^14C-amorphous cellulose by TrCel7B in the presence and absence of added cellobiose are shown in Figure 9A. For the results with TrCel5A and TrCel12A, see Additional file 1: Figure S5. […] This figure is reasonably well in line with that measured for TrCel7B on amorphous cellulose using isothermal titration calorimetry. […]
(§2) EGs were assessed on ^14C-amorphous cellulose. ^14C-amorphous cellulose (0.5 g l^-1) was incubated (with shaking at 700 rpm) with EG in 50 mM sodium acetate buffer, pH 5.0, containing BSA (0.1 g l^-1) in the presence and absence of added cellobiose. […]

The next test deals with TrCel12A. The test can be described thus: Cellobiose effect on hydrolysis of 14C-amorphous cellulose by TrCel12A. It is filed as biochemical, Trichoderma reesei. The note with it: 35°C.
Description: as §1, §2

The structures appear in SMILES notation. Read-outs that look alike come from different tables or passages of the source.

Sequence of TaCel7A (A7WNU2 entry or part of it): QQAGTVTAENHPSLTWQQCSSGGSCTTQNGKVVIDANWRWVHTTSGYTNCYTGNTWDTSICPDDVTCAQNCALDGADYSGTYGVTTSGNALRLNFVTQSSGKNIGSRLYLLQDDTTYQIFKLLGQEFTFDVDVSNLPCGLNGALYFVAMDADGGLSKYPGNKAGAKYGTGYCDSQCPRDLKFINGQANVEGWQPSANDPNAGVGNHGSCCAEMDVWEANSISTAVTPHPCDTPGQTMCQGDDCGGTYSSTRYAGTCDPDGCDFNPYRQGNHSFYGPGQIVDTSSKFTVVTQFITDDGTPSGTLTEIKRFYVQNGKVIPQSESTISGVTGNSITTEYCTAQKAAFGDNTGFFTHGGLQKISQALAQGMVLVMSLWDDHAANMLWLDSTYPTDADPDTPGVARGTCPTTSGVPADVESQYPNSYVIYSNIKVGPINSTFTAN
T1 sequence (P07982 22-418): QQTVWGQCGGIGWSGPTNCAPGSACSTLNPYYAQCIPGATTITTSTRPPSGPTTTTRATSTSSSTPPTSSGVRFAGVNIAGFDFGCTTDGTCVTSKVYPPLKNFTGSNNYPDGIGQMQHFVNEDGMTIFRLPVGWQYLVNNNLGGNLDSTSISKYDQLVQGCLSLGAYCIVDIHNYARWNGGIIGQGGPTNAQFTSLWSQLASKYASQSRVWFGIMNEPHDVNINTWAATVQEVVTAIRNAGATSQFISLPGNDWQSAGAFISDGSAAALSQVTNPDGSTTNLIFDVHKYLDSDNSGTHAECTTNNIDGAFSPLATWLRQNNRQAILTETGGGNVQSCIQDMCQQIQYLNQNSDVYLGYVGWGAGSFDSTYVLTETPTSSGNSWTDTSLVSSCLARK

The IC50 is the midpoint of a concentration-inhibition curve. Turning to `O=C[C@H](O)[C@@H](O)[C@H](O[C@@H]1O[C@H](CO)[C@@H](O)[C@H](O)[C@H]1O)[C@H](O)CO` [cellobiose, Cellobiose], the IC50 is 580 ± 350 µM at TaCel7A (35°C) and 930 ± 100 µM on TaCel7A (50°C). Also, the “IC50 (approximate, by visual inspection of Figure 9B)” value is on record as “few hundred millimolar range” on TrCel5A and “few hundred millimolar range” in the test on TrCel12A (TrCel12A (50 nM), not accountable by Equation 5). Moreover, in the test on TrCel12A (TrCel12A, 75 mM cellobiose), the “Effect of cellobiose on activity” value is “apparent activation”.

Source of the values: publication PMC3726336, “Product inhibition of cellulases studied with ^14C-labeled cellulose substrates” (Biotechnology for Biofuels, 2013).
